# Tests used:
# [1] = Plasma incubations (human plasma stability); conditions: 37° C., 25 μM
# Method: Human and rat plasma were purchased from Innovative Research Inc. (Southfield. Mich., USA). […] Aliquots were removed at 2 and 60 minutes and quenched with an equal volume of cold acetonitrile. After mixing vigorously, the precipitated protein matter was removed by filtration (Multiscreen Solvinert filter plates, Millipore, Bedford, Mass., USA) and the filtrate analysed by reverse phase HPLC with mass spectrometric detection, using single ion monitoring of the [M+H]^+ species. Metabolic turnover was determined by comparison of peak areas from the ion chromatograms of the parent compound at 2 and 60 minutes and expressed as percent remaining at 1 hour.
# [2] = Liver microsomal incubations (HLM stability); conditions: human liver microsomes, 25 μM
# rat osteoclasts = test: Rat osteoclast resorption assay; conditions: read-out: Cell-based % Inh. @ 1 μM Rat
# Method: Bone resorption was studied using a model where mature osteoclasts derived from rat bone were cultured on bovine bone slices for 3 days and allowed to resorb bone in the presence of inhibitor, positive control (E-64) or vehicle. More specifically, tibia, femori and humeri were removed from 1 day old rat pups. The endosteal surfaces of the bones were scraped with a scapelto release osteoclasts into the culture medium and the osteoclasts were allowed to attach to bovine bone slices. After the culture period, bone collagen degradation products were quantified from the culture medium as an index of bone resorption. The assay was performed by Pharmatest Services Ltd, Itäinen Pitkakatu 4C, Turku, Finland.
# human osteoclasts [3] = test: Human osteoclast resorption assay; type: cell-based; conditions: for inhibition at 1 µM: Homo sapiens, Osteoclast, read-out: Cell-based % Inh. @ 1 μM Human
# Method: Bone resorption was studied using a model where human osteoclast precursor cells were cultured on bovine bone slices for 9 days and allowed to differentiate into bone-resorbing osteoclasts. The formed mature osteoclasts were then allowed to resorb bone. The assay was performed by Pharmatest Services Ltd, Itäinen Pitkakatu 4C, Turku, Finland. After the culture period, bone collagen degradation products were quantified from the culture medium as an index of bone resorption. Inhibitor compounds were added into the cell cultures after the differentiation period and their effects on the resorbing activity of mature osteoclasts were determined. The studies included a baseline group without added compounds and a positive control group where a potent cathepsin K inhibitor E-64 was added.
# Human peripheral blood monocytes were suspended to culture medium and allowed to attach to bovine bone slices. The bone slices were transferred into 96-well tissue culture plates containing culture medium with appropriate amounts of important growth factors favouring osteoclast differentiation, including M-CSF, RANK-ligand and TGF-β. The cells were incubated in a CO2 incubator in humidified atmosphere of 95% air and 5% carbon dioxide at 37° C. At day 7 when osteoclast differentiation was complete, the culture medium was replaced with culture medium containing conditions favouring osteoclast activity. The cell culture was continued for an additional 2 days, during which the formed mature osteoclasts were allowed to resorb bone in the presence of vehicle, control inhibitor (E64) or test compounds. At the end of the culture, bone collagen degradation products released into the culture medium were determined using a commercially available ELISA method (CrossLaps® for culture, Nordic Bioscience, Herlev, Denmark) as an index of bone resorption (see Bagger, Y. Z. et al, J. Bone. Miner. Res. 14 (suppl. 1), S370).
# human osteoclasts [4] = conditions: literature value; cited from earlier work
# [5] = LogD determinations (shake-flask, octanol/PBS); conditions: 1-octanol/phosphate buffered saline, pH 7.4
# Method: LogD(PBS) determinations were performed in 96 well microtitre plates using a miniaturised “shake-flask” method. […] The plates were then capped and mixed vigorously for 1 hour on a microtitre plate shaker, after which they were left to stand, allowing the PBS and octanol phases to separate. The PBS layer was analysed by reverse phase HPLC with mass spectrometric detection, using single ion monitoring of the [M+H]^+ species.
# [formula] Where AUCstd and AUCpbs are the peak areas from the standard and test ion chromatograms respectively.
# [6] = molecular target: T1, Human recombinant cathepsin K (Homo sapiens, UniProt P43235); test: In vitro cathepsin Ki inhibition measurements; type: biochemical; conditions: Table 1; read-out: In vitro Ki (nM) vs Cath K
# T1 construct: B. Turk, Josef Stefan Institute, Ljubljana, Slovenia (academic supplier)
# T1 sequence (P43235 115-329): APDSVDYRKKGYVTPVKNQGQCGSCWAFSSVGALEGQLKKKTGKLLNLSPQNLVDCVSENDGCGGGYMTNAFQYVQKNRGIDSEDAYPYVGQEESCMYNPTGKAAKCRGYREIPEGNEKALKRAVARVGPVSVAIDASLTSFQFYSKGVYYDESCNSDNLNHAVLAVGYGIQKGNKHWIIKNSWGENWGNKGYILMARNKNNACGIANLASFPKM
# Method: Stock solutions of substrate or inhibitor were made up to 10 mM in 100% dimethylsulfoxide (DMSO) (Rathburns, Glasgow, U.K.) and diluted as appropriately required. In all cases the DMSO concentration in the assays was maintained at less than 1% (vol./vol.). The equilibrium inhibition constants (Ki^SS) for each compound were measured under steady-state conditions monitoring enzyme activity as a function of inhibitor concentration. The values were calculated on the assumption of pure competitive behaviour (Comish-Bowden, A. Fundamentals of enzyme kinetics Portland Press; 1995, 93-128).
# The apparent inhibition constant (Ki) for each compound was determined on the basis that inhibition was reversible and occurred by a pure-competitive mechanism. The Ki values were calculated, from the dependence of enzyme activity as a function of inhibitor concentration, by direct regression analysis (Prism v 3.02) using Equation 2 (Cornish-Bowden, A., 1995).
# In situations where the apparent dissociation constant (Ki^app) approached the enzyme concentrations, the Ki^app values were calculated using a quadratic solution in the form described by Equation 3 (Morrison, J. F. Trends Biochem. Sci., 7, 102-105, 1982; Morrison, J. F. Biochim. Biophys. Acta, 185 269-286, 1969; Stone, S. R. and Hofsteenge, J. Biochemistry, 25, 4622-4628, 1986).
# Curves were fitted by non-linear regression analysis (Prism) using a fixed value for the enzyme concentration. Equation 4 was used to account for the substrate kinetics, where ‘Ki’ is the inhibition constant, ‘[S0]’ is the initial substrate concentration and ‘KM^app’ is the apparent macroscopic binding (Michaelis) constant for the substrate (Morrison, 1982).
Human Plasma Stability % rem. @ 1 H [1],HLM % rem. @ 1 hr [2],logD at 1 h [5],Ki [6],LogD pH 7.4,Compound,inhibition at 1 µM (rat osteoclasts),inhibition at 1 µM (human osteoclasts [3]),Cell-based % Inh. @ 1 μM Human (Lit.) (human osteoclasts [4]),Cell-based % Inh. @ 1 μM Human (human osteoclasts [3])
95%,95%,–,–,–,"CC(C)C[C@H](NC(=O)c1ccc(N2CCN(C)CC2)cc1)C(=O)N1CC[C@H]2OCC(=O)[C@H]21 [Example 1, 4-(4-methylpiperazin-1-yl)-N-((S)-4-methyl-1-oxo-1-((3aS,6aR)-3-oxodihydro-2H-furo[3,2-b]pyrrol-4(5H, 6H, 6aH)-yl)pentan-2-yl)benzamide, reference compound]",43%,55%,–,–
75%,70%,–,–,–,CC(C)C[C@H](NC(=O)c1ccc(C(C)(C)C)cc1)C(=O)N1CC[C@H]2OCC(=O)[C@H]21 [reference compound],–,–,Lit. 60%,–
99%,91%,1.21,14 nM,–,"CN1CCN(c2ccc(C(=O)N[C@H](C(=O)N3CC[C@H]4OCC(=O)[C@H]43)C3CCCCC3)cc2)CC1 [Example 2, N-((S)-1-cyclohexyl-2-oxo-2-((3aS,6aR)-3-oxodihydro-2H-furo[3,2-b]pyrrol-4(5H,6H,6aH)-yl)ethyl)-4-(4-methylpiperazin-1-yl)benzamide]",0%,74 to 76%,–,76%
97%,91%,0.78,2 nM,–,"CN1CCN(c2ccc(C(=O)N[C@H](C(=O)N3CC[C@H]4OCC(=O)[C@H]43)C3CCCC3)cc2)CC1 [Example 3, N-((S)-1-cyclopentyl-2-oxo-2-((3aS,6aR)-3-oxodihydro-2H-furo[3,2-b]pyrrol-4(5H,6H,6aH)-yl)ethyl)-4-(4-methylpiperazin-1-yl)benzamide]",60%,74 to 76%,–,74%
–,–,–,7 nM,1.55,"N-((S)-1-cyclopentyl-2-oxo-2-((3aS,6aR)-3-oxodihydro-2H-furo[3,2-b]pyrrol-4(5H,6H,6aH)-yl)ethyl)-4-(4-propylpiperazin-1-yl)benzamide [Example 17]",–,–,–,>80%

# Source: US7846934B2, “Furo[3,2-B] pyrrol-3-one derivatives and their use as cysteinyl proteinase inhibitors” (Amura Therapeutics Limited, priority 2007, dated 2010)
